We go through 16 compounds from patent US20100075907A1, “NEUROMEDIN U RECEPTOR AGONISTS AND USES THEREOF” (priority 2006, published 2010).

Non-standard residues stand in square brackets, D forms with d. Residues, ends and D or L forms follow the SMILES beside them. No end group written: not given here. *: point of attachment. Succinimide(1-Et,3-yl) = CCN1C(=O)CC(*)C1=O; hArg = N=C(N)NCCCC[C@H](N)C(=O)O; dNle = CCCC[C@@H](N)C(=O)O

In this assay the target is T1, hNMUR1 (Homo sapiens, UniProt Q9HB89).
T1 sequence (Q9HB89 1-426): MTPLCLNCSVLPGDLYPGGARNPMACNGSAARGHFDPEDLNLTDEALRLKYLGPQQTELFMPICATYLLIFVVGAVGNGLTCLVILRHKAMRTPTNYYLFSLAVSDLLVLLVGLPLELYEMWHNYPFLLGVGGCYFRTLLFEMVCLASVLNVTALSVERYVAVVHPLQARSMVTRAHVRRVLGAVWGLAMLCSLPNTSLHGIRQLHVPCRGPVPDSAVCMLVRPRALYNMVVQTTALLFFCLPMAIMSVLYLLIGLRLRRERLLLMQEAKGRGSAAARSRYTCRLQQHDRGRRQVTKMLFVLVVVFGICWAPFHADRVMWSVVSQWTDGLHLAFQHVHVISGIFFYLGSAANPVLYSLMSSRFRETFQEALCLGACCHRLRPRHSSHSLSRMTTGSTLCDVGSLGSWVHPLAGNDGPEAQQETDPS
As to the kind of experiment: 125I-hNMU-25 binding assay, human NMUR1 membranes. Also noted: expressed in transfected cells; host or cells: HEK-293 FLP-In cells (pcDNA5); HEK-293/aeq17 lines (pIRES-puro) were also made; % inhibition of NMU-25 binding / % Activity: concentration or dose not given beside the values. How it is done:
Confluent cell monolayers expressing NMU receptors (the HEK cells described above) were harvested with phosphate buffered saline, collected by centrifugation, and resuspended in membrane buffer (50 mM TrisCl pH 7.4, 5 mM MgCl2, 1× Protease Inhibitor Cocktail, 10 μM phosphoramidon). After the cell pellet was homogenized, the solution was centrifuged at 18,000 rpm for 20 minutes at 4° C. The pellet was resuspended in membrane buffer to yield a final concentration of 0.5-5 μg/μL of membrane and stored at −80° C.
Experiments were performed in assay buffer (25 mM TrisCl, pH 7.4, 10 mM MgCl2, 2 mM EDTA, 1× Protease Inhibitor Cocktail, 100 μg/mL Bacitricin, 10 μM phosphoramidon) in 200 μL volumes in a 96-well format using 2-5 μg of membrane and 0.1 nM ^125I-hNMU-25 (about 12,000 cpm/well). For non-specific binding, 1 μM hNMU-25 was added. About 5 μL of peptides were added to measure antagonist activity, and the entire reaction was incubated at room temperature with shaking for 80 minutes. The reaction was terminated by rapid filtration through 0.3% poly-ethylenimine presoaked Millipore 96-well filter plates and washed with ice-cold buffer (5 mM TrisCl pH 7.4, 10 mM MgCl2, 2.5 mM EDTA, 0.04% Triton X-100). Plates were air-dried overnight at room temperature and recovered radioactivity was determined by standard scintillation counting. IC50 values were determined using GraphPad Prism software.
Concentration-response curves and radioligand-binding data were fitted using Prism (GraphPad Software). Results are summarized below in Tables 8 and 9.

Regarding `CC(C)C[C@@H](NC(=O)[C@H](Cc1ccccc1)NC(=O)[C@@H](N)Cc1ccc(O)cc1)C(=O)N[C@@H](Cc1c[nH]c2ccccc12)C(=O)N[C@@H](CCCNC(=N)N)C(=O)N1CCC[C@H]1C(=O)N[C@@H](CCCNC(=N)N)C(=O)N[C@@H](CC(N)=O)C(N)=O` [Agonist B, YF-(D-L)-WRPRN-CONH2] (H-YF[dL]WRPRN-NH2), the “% Activity” value (Table 8, HEK-hR1, binding) was determined as 96%.
On the same count and under the same terms, the result for `C[C@@H](NC(=O)[C@H](Cc1ccccc1)NC(=O)[C@@H](N)Cc1ccc(O)cc1)C(=O)N[C@@H](Cc1c[nH]c2ccccc12)C(=O)N[C@@H](CCCNC(=N)N)C(=O)N1CCC[C@H]1C(=O)N[C@@H](CCCNC(=N)N)C(=O)N[C@@H](CC(N)=O)C(N)=O` [Agonist D, YF-(D-A)-WRPRN-CONH2] (H-YF[dA]WRPRN-NH2; N-terminus assumed) reads 100%; that for `CC(=O)N[C@@H](Cc1ccccc1)C(=O)N[C@H](CC(C)C)C(=O)N[C@@H](Cc1c[nH]c2ccccc12)C(=O)N[C@@H](CCCNC(=N)N)C(=O)N1CCC[C@H]1C(=O)N[C@@H](CCCNC(=N)N)C(=O)N[C@@H](CC(N)=O)C(N)=O` [Agonist E, Ac-F-(D-L)-WRPRN-CONH2] (Ac-F[dL]WRPRN-NH2), 93%.
A word on the IC50: it is the point on the concentration scale where inhibition reaches its midpoint. For `CC(C)C[C@@H](NC(=O)[C@H](Cc1ccccc1)NC(=O)[C@H](Cc1ccc(O)cc1)NC(=O)CNC(=O)[C@H](CCCNC(=N)N)NC(=O)[C@H](CO)NC(=O)[C@H](CCC(N)=O)NC(=O)[C@H](CO)NC(=O)[C@H](C)NC(=O)[C@H](Cc1ccccc1)NC(=O)[C@@H]1CCCN1C(=O)[C@H](CO)NC(=O)[C@H](CCC(N)=O)NC(=O)[C@H](Cc1ccccc1)NC(=O)[C@H](CCC(=O)O)NC(=O)[C@H](CCC(=O)O)NC(=O)[C@H](CC(=O)O)NC(=O)[C@@H](NC(=O)[C@H](CCCNC(=N)N)NC(=O)[C@@H](N)Cc1ccccc1)C(C)C)C(=O)N[C@@H](Cc1c[nH]c2ccccc12)C(=O)N[C@@H](CCCNC(=N)N)C(=O)N1CCC[C@H]1C(=O)N[C@@H](CCCNC(=N)N)C(=O)N[C@@H](CC(N)=O)C(N)=O` [Agonist H] (H-FRVDEEFQSPFASQSRGYF[dL]WRPRN-NH2; N-terminus assumed), the “% Activity” value (Table 8, HEK-hR1, binding) came to 93%. For the same compound, the IC50 (binding, human R1) was found to be 1.1 nM. In addition, the “% inhibition of NMU-25 binding” value (human R1) was found to be 93%.
On to `CC(C)C[C@H](NC(=O)[C@H](Cc1c[nH]c2ccccc12)NC(=O)[C@@H](N)Cc1ccccc1)C(=O)N[C@@H](Cc1ccccc1)C(=O)N[C@@H](CCCNC(=N)N)C(=O)N1CCC[C@H]1C(=O)N[C@@H](CCCCNC(=N)N)C(=O)N[C@@H](CC(N)=O)C(N)=O` [Agonist I, FWLFRP-(Harg)-N-CONH2] (H-FWLFRP[hArg]N-NH2), for which, where the note is “Table 9, HEK-hR1, binding”, the “% Activity” value is reported as 23% and the half-inhibitory concentration (IC50) is above 1000 nM.
Take `CC(C)C[C@H](NC(=O)[C@H](Cc1c[nH]c2ccccc12)NC(=O)[C@@H](N)Cc1ccccc1)C(=O)N[C@@H](Cc1ccccc1)C(=O)N[C@@H](CCCNC(=N)N)C(=O)N[C@@H](C)C(=O)N[C@@H](CCCCNC(=N)N)C(=O)N[C@@H](CC(N)=O)C(N)=O` [Agonist J, FWLFRA-(Harg)-N-CONH2] (H-FWLFRA[hArg]N-NH2): where the note is “Table 9, HEK-hR1, binding”, the “% Activity” value came out at 34% and the IC50 is above 1000 nM.
With `CCCC[C@@H](NC(=O)[C@H](CCCNC(=N)N)NC(=O)[C@H](C)NC(=O)[C@H](CCCNC(=N)N)NC(=O)[C@H](Cc1ccccc1)NC(=O)[C@H](CC(C)C)NC(=O)[C@H](Cc1ccccc1)NC(=O)[C@@H](N)Cc1c[nH]c2ccccc12)C(N)=O` [Agonist K, WFLFRAR-(D-Nle)-CONH2] (H-WFLFRAR[dNle]-NH2), for the setting “Table 9, HEK-hR1, binding”, the “% Activity” value is given as 25% and the IC50 was above 1000 nM.
In the case of `CC(C)C[C@H](NC(=O)[C@H](Cc1c[nH]c2ccccc12)NC(=O)[C@H](Cc1ccccc1)NC(=O)CNC(=O)[C@H](CCCNC(=N)N)NC(=O)[C@H](CO)NC(=O)[C@H](CCC(N)=O)NC(=O)[C@H](CO)NC(=O)[C@H](C)NC(=O)[C@H](Cc1ccccc1)NC(=O)[C@@H]1CCCN1C(=O)[C@H](CO)NC(=O)[C@H](CCC(N)=O)NC(=O)[C@H](Cc1ccccc1)NC(=O)[C@H](CCC(=O)O)NC(=O)[C@H](CCC(=O)O)NC(=O)[C@H](CC(=O)O)NC(=O)[C@@H](NC(=O)[C@H](CCCNC(=N)N)NC(=O)[C@@H](N)Cc1ccccc1)C(C)C)C(=O)N[C@@H](Cc1ccccc1)C(=O)N[C@@H](CCCNC(=N)N)C(=O)N1CCC[C@H]1C(=O)N[C@@H](CCCCNC(=N)N)C(=O)N[C@@H](CC(N)=O)C(N)=O` [Agonist O] (H-FRVDEEFQSPFASQSRGFWLFRP[hArg]N-NH2; N-terminus assumed), for the setting “Table 9, HEK-hR1, binding”, the “% Activity” value worked out at 64% and the IC50 was determined as 400 nM.
In the case of `CC(C)C[C@H](NC(=O)[C@H](Cc1c[nH]c2ccccc12)NC(=O)[C@H](Cc1ccccc1)NC(=O)CNC(=O)[C@H](CCCNC(=N)N)NC(=O)[C@H](CO)NC(=O)[C@H](CCC(N)=O)NC(=O)[C@H](CO)NC(=O)[C@H](C)NC(=O)[C@H](Cc1ccccc1)NC(=O)[C@@H]1CCCN1C(=O)[C@H](CO)NC(=O)[C@H](CCC(N)=O)NC(=O)[C@H](Cc1ccccc1)NC(=O)[C@H](CCC(=O)O)NC(=O)[C@H](CCC(=O)O)NC(=O)[C@H](CC(=O)O)NC(=O)[C@@H](NC(=O)[C@H](CCCNC(=N)N)NC(=O)[C@@H](N)Cc1ccccc1)C(C)C)C(=O)N[C@@H](Cc1ccccc1)C(=O)N[C@@H](CCCNC(=N)N)C(=O)N[C@@H](C)C(=O)N[C@@H](CCCCNC(=N)N)C(=O)N[C@@H](CC(N)=O)C(N)=O` [Agonist P] (H-FRVDEEFQSPFASQSRGFWLFRA[hArg]N-NH2; N-terminus assumed), under “Table 9, HEK-hR1, binding”, the “% Activity” value turned out to be 1% and the concentration for half-maximal inhibition (IC50) was above 1000 nM.
The like results for `CCCC[C@@H](NC(=O)[C@H](CCCNC(=N)N)NC(=O)[C@@H]1CCCN1C(=O)[C@H](CCCNC(=N)N)NC(=O)[C@H](Cc1ccccc1)NC(=O)[C@H](CC(C)C)NC(=O)[C@H](Cc1c[nH]c2ccccc12)NC(=O)[C@H](Cc1ccccc1)NC(=O)CNC(=O)[C@H](CCCNC(=N)N)NC(=O)[C@H](CO)NC(=O)[C@H](CCC(N)=O)NC(=O)[C@H](CO)NC(=O)[C@H](C)NC(=O)[C@H](Cc1ccccc1)NC(=O)[C@@H]1CCCN1C(=O)[C@H](CO)NC(=O)[C@H](CCC(N)=O)NC(=O)[C@H](Cc1ccccc1)NC(=O)[C@H](CCC(=O)O)NC(=O)[C@H](CCC(=O)O)NC(=O)[C@H](CC(=O)O)NC(=O)[C@@H](NC(=O)[C@H](CCCNC(=N)N)NC(=O)[C@@H](N)Cc1ccccc1)C(C)C)C(N)=O` [Agonist Q] (H-FRVDEEFQSPFASQSRGFWLFRPR[dNle]-NH2) were, in that order, 16% and above 1000 nM.
Regarding `CCN1C(=O)CC(SC[C@H](NC(C)=O)C(=O)N[C@@H](Cc2ccccc2)C(=O)N[C@@H](CCCNC(=N)N)C(=O)N[C@H](C(=O)N[C@@H](CC(=O)O)C(=O)N[C@@H](CCC(=O)O)C(=O)N[C@@H](CCC(=O)O)C(=O)N[C@@H](Cc2ccccc2)C(=O)N[C@@H](CCC(N)=O)C(=O)N[C@@H](CO)C(=O)N2CCC[C@H]2C(=O)N[C@@H](Cc2ccccc2)C(=O)N[C@@H](C)C(=O)N[C@@H](CO)C(=O)N[C@@H](CCC(N)=O)C(=O)N[C@@H](CO)C(=O)N[C@@H](CCCNC(=N)N)C(=O)NCC(=O)N[C@@H](Cc2ccc(O)cc2)C(=O)N[C@@H](Cc2ccccc2)C(=O)N[C@H](C)C(=O)N[C@@H](Cc2c[nH]c3ccccc23)C(=O)N[C@@H](CCCNC(=N)N)C(=O)N2CCC[C@H]2C(=O)N[C@@H](CCCNC(=N)N)C(=O)N[C@@H](CC(N)=O)C(N)=O)C(C)C)C1=O` (stereo partly drawn) [NMU13] (Ac-C(Succinimide(1-Et,3-yl))FRVDEEFQSPFASQSRGYF[dA]WRPRN-NH2), the “% inhibition of NMU-25 binding” value (human R1) amounted to 100%.
Take `CC(C)C[C@H](NC(=O)[C@H](Cc1ccccc1)NC(=O)[C@@H](N)Cc1ccc(O)cc1)C(=O)N[C@@H](Cc1ccccc1)C(=O)N[C@@H](CCCNC(=N)N)C(=O)N1CCC[C@H]1C(=O)N[C@@H](CCCNC(=N)N)C(=O)N[C@@H](CC(N)=O)C(N)=O` [NMU-8, reference compound]: the “% Activity” value (Table 9, HEK-hR1, binding) was 100%.
In the case of “Ac-FFRPRN-NH2 [Agonist F, Ac-FFRPRN-CONH2]”, the “% Activity” value (Table 8, HEK-hR1, binding) was 30%. Besides, the concentration for half-maximal inhibition (IC50) (Table 8, HEK-hR1, second (binding) column pair) is above 1000 nM.
With FALFRPRN-NH2 [Agonist N], under “Table 9, HEK-hR1, binding”, the “% Activity” value came to 38.4% and the IC50 was above 1000 nM.
Regarding “H-FRVDEEFQSPFASQSRGYFLFRPRN-NH2 [hNMU-25, reference compound]”, the “% Activity” value (Table 9, HEK-hR1, binding) is listed as 100%. The compound further registered an IC50 (binding, human R1) of 0.14 nM.
With “H-FRVDEEFQSPFASQSRGYFWRPRN-NH2 [Agonist G]”, for the setting “Table 8, HEK-hR1, binding”, the “% Activity” value worked out at 97%.
